The values below come from patent publication US8618111B2, “5-alkynyl-pyrimidines” (Boehringer Ingelheim International GmbH, priority 2010, dated 2013).

One assay addresses PI3Kalpha (Homo sapiens (Human), UniProt P42336). Description: Inhibition of PI3Kalpha-induced PIP-2 phosphorylation (filter-binding assay). As to conditions: 33P-ATP. The format is biochemical. How it is done:
Inhibition of PI3Kalpha-Induced PIP-2 Phosphorylation
Method Type: Filter-Binding-Assay
Aliquoted in desired amounts and stored at −80° C. Final assay concentration 25 ng/well.

The subject of the next assay is BT474. Description: BT474 cell assay (EC50). The format is cell-based. The following applies: Homo sapiens, BT-474; BT474 cells.
The target of a further assay is mTOR (Homo sapiens (Human), UniProt P42345). Description: mTOR kinase activity assay (phosphorylation status of mTOR substrate 4E-BP1; TR-FRET). As to conditions: GFP-4E-BP1 substrate, 8 μM ATP. The assay is classed as biochemical. A general note: In TR-FRET formats the signal depends on donor and acceptor labels being close together.
The test system of assay [1] is U87MG human glioblastoma cell line. Description: CyQuant assay in U87MG cells. The assay is classed as cell-based. As to conditions: U-87 MG, 72 h, 3 days incubation. How it is done: CyQuant Assay in U87MG Cells
3. […] Evaluation • Calculate EC50 using GraphPad Prism (Fifty)

Assay [2] deals with PC3 (human prostate carcinoma cell line) cells. Nature of the assay: PC3 proliferation test. The format is cell-based. The following applies: PC-3, 72 h, 3 days incubation, DNA dye fluorescence.
Method: The test is based on measurement of cellular DNA content via fluorescent dye binding. Because cellular DNA content is highly regulated, it is closely proportional to cell number. The extent of proliferation is determined by comparing cell counts for samples treated with drugs with untreated controls.
PC3 (human prostate carcinoma cell line) cells are sown in microtitre plates and incubated overnight in culture medium at 37° C. and 5% CO2. The test substances are diluted stepwise and added to the cells such that the total volume is 200 μL/well. Cells to which diluent, but not substance, is added serve as controls.

mTOR, sequence (P42345 1360-2549): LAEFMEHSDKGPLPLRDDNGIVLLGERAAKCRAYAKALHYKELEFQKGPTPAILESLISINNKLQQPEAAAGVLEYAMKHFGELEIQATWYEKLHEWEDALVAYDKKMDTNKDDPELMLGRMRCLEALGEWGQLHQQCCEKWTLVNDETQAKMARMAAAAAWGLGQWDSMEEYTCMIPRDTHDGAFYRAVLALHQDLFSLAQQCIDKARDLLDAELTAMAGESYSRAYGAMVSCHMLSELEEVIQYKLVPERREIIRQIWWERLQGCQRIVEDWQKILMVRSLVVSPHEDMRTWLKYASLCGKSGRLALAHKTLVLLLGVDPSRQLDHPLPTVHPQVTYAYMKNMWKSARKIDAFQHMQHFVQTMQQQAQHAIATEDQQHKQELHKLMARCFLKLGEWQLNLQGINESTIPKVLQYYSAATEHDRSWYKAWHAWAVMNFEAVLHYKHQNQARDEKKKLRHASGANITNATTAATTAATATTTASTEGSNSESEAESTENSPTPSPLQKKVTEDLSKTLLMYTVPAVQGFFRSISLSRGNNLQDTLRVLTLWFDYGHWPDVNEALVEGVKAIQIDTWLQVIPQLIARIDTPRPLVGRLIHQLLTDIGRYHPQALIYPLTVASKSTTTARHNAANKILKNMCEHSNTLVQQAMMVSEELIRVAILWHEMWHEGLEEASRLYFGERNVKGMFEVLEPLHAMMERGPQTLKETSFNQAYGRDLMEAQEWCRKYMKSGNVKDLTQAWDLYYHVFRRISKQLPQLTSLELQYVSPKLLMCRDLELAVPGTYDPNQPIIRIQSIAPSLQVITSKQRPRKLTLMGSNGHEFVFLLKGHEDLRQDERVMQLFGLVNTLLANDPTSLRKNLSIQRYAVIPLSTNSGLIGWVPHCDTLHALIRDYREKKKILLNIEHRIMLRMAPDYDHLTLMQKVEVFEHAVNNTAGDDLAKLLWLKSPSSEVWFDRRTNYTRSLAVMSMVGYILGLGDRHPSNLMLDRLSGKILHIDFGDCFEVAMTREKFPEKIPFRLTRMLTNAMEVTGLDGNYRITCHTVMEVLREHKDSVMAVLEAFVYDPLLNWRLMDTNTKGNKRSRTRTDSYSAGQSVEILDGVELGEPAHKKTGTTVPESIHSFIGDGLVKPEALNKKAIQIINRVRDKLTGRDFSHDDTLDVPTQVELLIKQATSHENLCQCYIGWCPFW
PI3Kalpha, sequence (P42336 whole entry, species assumed): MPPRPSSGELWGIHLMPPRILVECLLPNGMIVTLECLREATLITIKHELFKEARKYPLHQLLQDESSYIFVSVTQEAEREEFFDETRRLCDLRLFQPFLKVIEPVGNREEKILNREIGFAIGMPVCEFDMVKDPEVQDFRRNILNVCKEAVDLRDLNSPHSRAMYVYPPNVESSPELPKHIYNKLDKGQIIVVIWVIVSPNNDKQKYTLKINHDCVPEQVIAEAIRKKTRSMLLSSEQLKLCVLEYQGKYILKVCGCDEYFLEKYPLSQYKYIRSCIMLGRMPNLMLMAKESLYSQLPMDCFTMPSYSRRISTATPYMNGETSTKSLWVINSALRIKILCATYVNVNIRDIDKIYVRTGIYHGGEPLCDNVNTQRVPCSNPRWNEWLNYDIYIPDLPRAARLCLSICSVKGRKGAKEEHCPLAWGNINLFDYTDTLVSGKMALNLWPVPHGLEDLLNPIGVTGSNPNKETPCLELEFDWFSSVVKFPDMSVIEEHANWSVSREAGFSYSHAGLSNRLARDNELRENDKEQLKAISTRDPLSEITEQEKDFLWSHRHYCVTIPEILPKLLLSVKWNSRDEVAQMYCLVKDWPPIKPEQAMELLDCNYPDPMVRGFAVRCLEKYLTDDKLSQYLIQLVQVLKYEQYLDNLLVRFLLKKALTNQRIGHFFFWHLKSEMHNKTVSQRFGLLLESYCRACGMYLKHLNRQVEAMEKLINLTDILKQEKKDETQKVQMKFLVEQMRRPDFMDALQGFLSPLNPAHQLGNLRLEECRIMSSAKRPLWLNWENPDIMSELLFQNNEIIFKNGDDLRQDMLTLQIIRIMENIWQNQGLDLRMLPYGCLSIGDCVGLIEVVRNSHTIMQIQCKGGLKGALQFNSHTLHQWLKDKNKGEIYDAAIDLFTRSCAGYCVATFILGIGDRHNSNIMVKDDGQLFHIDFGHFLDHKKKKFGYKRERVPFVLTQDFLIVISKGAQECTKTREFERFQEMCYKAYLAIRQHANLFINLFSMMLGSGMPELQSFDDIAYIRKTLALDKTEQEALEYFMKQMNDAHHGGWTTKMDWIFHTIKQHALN
PI3Kalpha, sequence (P27986 whole entry partner, species assumed): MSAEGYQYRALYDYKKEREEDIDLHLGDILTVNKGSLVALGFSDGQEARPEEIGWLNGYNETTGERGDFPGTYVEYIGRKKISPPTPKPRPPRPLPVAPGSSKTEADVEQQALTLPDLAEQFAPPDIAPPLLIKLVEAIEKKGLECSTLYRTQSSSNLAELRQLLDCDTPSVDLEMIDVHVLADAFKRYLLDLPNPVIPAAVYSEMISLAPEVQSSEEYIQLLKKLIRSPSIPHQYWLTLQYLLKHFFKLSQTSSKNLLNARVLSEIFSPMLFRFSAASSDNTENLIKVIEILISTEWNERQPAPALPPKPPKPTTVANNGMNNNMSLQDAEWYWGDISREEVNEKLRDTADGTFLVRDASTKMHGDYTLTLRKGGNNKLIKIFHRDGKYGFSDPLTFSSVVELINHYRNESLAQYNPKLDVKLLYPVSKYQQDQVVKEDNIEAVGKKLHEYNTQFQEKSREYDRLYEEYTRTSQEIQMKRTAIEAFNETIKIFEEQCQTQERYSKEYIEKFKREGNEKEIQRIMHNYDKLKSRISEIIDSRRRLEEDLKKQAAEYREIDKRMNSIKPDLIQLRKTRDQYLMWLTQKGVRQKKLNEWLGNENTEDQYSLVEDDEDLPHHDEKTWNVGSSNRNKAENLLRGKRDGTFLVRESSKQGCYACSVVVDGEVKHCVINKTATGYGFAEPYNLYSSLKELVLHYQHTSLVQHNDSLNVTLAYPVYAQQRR

For orientation: EC50 means the concentration giving half of the maximal effect. Lower therefore signals greater potency. Usually IC50 stands for the concentration needed to halve the response being measured. A lower IC50 goes with inhibition by little substance. Regarding `CCc1ncnc(N2CCc3ncncc3C2)c1C#Cc1ccc(N)nc1` [Example H-11], the “IC50 PI3Ka” value at PI3Kalpha came to 50 nM. Further, in the assay on BT474, the EC50 came to 93 nM. For the same compound, the IC50 on mTOR came out at 27 nM.

Take `CCc1ncnc(N2CCN(c3cccnc3)CC2)c1C#Cc1ccc(N)nc1` [Example H-23]: on PI3Kalpha, the “IC50 PI3Ka” value stood at 48 nM. Moreover, in the assay with BT474, a half-maximal effect (EC50) was put at 139 nM. For the same compound, on mTOR, the IC50 worked out at 14 nM.

With `CCc1ncnc(N2CCN(c3ccccc3)CC2)c1C#Cc1ccc(N)nc1` [Example H-24], the “IC50 PI3Ka” value at PI3Kalpha worked out at 129 nM. In the assay with BT474, a half-maximal response (EC50) required 78 nM. At mTOR, this compound had a half-maximal inhibitory concentration (IC50) of 89 nM.

Turning to `CCc1ncnc(N2CCN(C)C(=O)C2)c1C#Cc1ccc(N)nc1` [Example H-13], at PI3Kalpha, the “IC50 PI3Ka” value amounted to 72 nM. For the same compound, in the assay on BT474, a half-maximal response (EC50) required 76 nM. For the same compound, the IC50 against mTOR stood at 37 nM.

Turning to `CCc1ncnc(N2CCN(c3ccncc3)CC2)c1C#Cc1ccc(N)nc1` [Example H-22], the “IC50 PI3Ka” value at PI3Kalpha worked out at 229 nM. The 50% effective concentration (EC50) in the assay with BT474 is 194 nM. Half-maximal inhibition at mTOR (IC50) required 49 nM.

For the compound `CCc1ncnc(N2CCN(c3ncccn3)CC2)c1C#Cc1ccc(N)nc1` [Example H-25], on PI3Kalpha, the “IC50 PI3Ka” value worked out at 48 nM. The compound also returned an EC50 in the assay with BT474 of 15 nM. Moreover, the half-inhibitory concentration (IC50) against mTOR was determined as 14 nM.

Take `CCc1ncnc(N2CCCCC2)c1C#Cc1ccc(NC)nc1` [Example H-1]: the “IC50 PI3Ka” value on PI3Kalpha came to 214 nM. The compound also had an EC50 in assay [1] of 745 nM. In addition, at mTOR, the half-inhibitory concentration (IC50) was determined as 55 nM.

With `CCc1ncnc(N2CCN(CCNS(C)(=O)=O)CC2)c1C#Cc1ccc(N)nc1` [Example H-14], at PI3Kalpha, the “IC50 PI3Ka” value is 60 nM. Moreover, it took 63 nM to reach a half-maximal effect with BT474 (EC50). This compound showed an IC50 on mTOR of 18 nM.

Consider `CCc1ncnc(N2CCN(c3ccccn3)CC2)c1C#Cc1ccc(N)nc1` [Example H-21], for which the “IC50 PI3Ka” value on PI3Kalpha was 42 nM. Besides, in the assay on BT474, the EC50 was 68 nM. It took 33 nM to reach half-maximal inhibition at mTOR (IC50).

For `CCc1ncnc(N2CCN(CC(C)(C)O)CC2)c1C#Cc1ccc(N)nc1` [Example B-81], on PI3Kalpha, the “IC50 PI3Ka” value is reported as 143 nM. Moreover, the response in assay [2] was half-maximal at 71 nM (EC50). Further, on mTOR, the IC50 was found to be 7 nM.

As to `CCc1ncnc(N2CCCC(NC(C)=O)C2)c1C#Cc1ccc(N)nc1` (stereo not drawn) [Example B-20], on PI3Kalpha, the “IC50 PI3Ka” value is listed as 167 nM. In assay [2], the half-maximal effective concentration (EC50) is 158 nM. This compound came in with a concentration for half-maximal inhibition (IC50) on mTOR of 16 nM.

With `Cc1ncnc(N2CCC3(CCN(C)CC3)CC2)c1C#Cc1ccc(N)nc1` [Example B-80], at PI3Kalpha, the “IC50 PI3Ka” value was 99 nM. The compound further displayed a half-maximal effective concentration (EC50) in assay [2] of 161 nM. In addition, the midpoint of inhibition against mTOR, the IC50, lay at 25 nM.

Turning to `Cc1ncnc(N2CCC3(CCNC3=O)CC2)c1C#Cc1ccc(N)nc1` [Example B-84], on PI3Kalpha, the “IC50 PI3Ka” value was 32 nM. The EC50 in assay [2] is 126 nM. At mTOR, this compound gave a concentration for half-maximal inhibition (IC50) of 19 nM.

As to `CCc1ncnc(N2CCn3c(C)cnc3C2)c1C#Cc1ccc(N)nc1` [Example B-78], the “IC50 PI3Ka” value at PI3Kalpha is given as 72 nM. This compound gave an EC50 in assay [2] of 101 nM. Moreover, half-maximal inhibition against mTOR (IC50) was put at 31 nM.

Turning to `CCc1ncnc(N2CCC3(CC2)COC3)c1C#Cc1ccc(N)nc1` [Example H-7], the “IC50 PI3Ka” value at PI3Kalpha is reported as 97 nM. Moreover, it took 944 nM to reach a half-maximal effect in the assay on BT474 (EC50). On mTOR, this compound returned an IC50 of 138 nM.

As for `CCc1ncnc(N2CCC(CCO)CC2)c1C#Cc1ccc(N)nc1` [Example B-18], on PI3Kalpha, the “IC50 PI3Ka” value is 35 nM. It took 34 nM to reach a half-maximal effect in assay [2] (EC50). On mTOR, the half-maximal inhibitory concentration (IC50) amounted to 5 nM.

As to `CCc1ncnc(N2CCC(O)CC2)c1C#Cc1ccc(NC)nc1` [Example B-87], the “IC50 PI3Ka” value on PI3Kalpha worked out at 76 nM. Further, the EC50 in assay [2] stood at 104 nM. Inhibition at mTOR was half-maximal at 20 nM (IC50).

Consider `CCc1ncnc(N2CCN(C(=O)c3ccccn3)CC2)c1C#Cc1ccc(N)nc1` [Example G-2], for which the “IC50 PI3Ka” value on PI3Kalpha was determined as 47 nM. The same compound displayed an EC50 in assay [2] of 138 nM. This compound returned a half-maximal inhibitory concentration (IC50) on mTOR of 90 nM.

Regarding `CCc1ncnc(N2CCC(O)CC2)c1C#Cc1ccc(C)nc1` [Example B-70], the “IC50 PI3Ka” value on PI3Kalpha came out at 139 nM. In assay [2], this compound returned an EC50 of 684 nM. On mTOR, this compound returned an IC50 of 141 nM.

For the compound `Cc1ncnc(N2CC[S+]([O-])CC2)c1C#Cc1ccc(N)nc1` [Example B-3], at PI3Kalpha, the “IC50 PI3Ka” value is recorded as 199 nM. Besides, the half-maximal effective concentration (EC50) in assay [2] was found to be 501 nM. 83 nM corresponded to half-maximal inhibition against mTOR (IC50).

For the compound `CCc1ncnc(N2CCS(=O)(=O)CC2)c1C#Cc1ccc(N)nc1` [Example B-53], the “IC50 PI3Ka” value at PI3Kalpha came to 380 nM. In assay [2], this compound registered a 50% effective concentration (EC50) of 142 nM. In addition, at mTOR, the IC50 stood at 12 nM.

As for `CCc1ncnc(N2CCC(C)(O)CC2)c1C#Cc1ccc(C)nc1` [Example B-73], the “IC50 PI3Ka” value at PI3Kalpha stood at 84 nM. This compound also returned an EC50 in assay [2] of 160 nM. This compound showed an IC50 against mTOR of 30 nM.

On to `Cc1ccc(C(=O)N2CCN(c3ncnc(C)c3C#Cc3ccc(N)nc3)CC2)o1` [Example G-10], for which the “IC50 PI3Ka” value at PI3Kalpha was 25 nM. The same compound came in with an EC50 in assay [2] of 221 nM. This compound also came in with a 50% inhibitory concentration (IC50) on mTOR of 60 nM.

Consider `CCc1ncnc(N2CCC(C=C(C)C)CC2)c1C#Cc1ccc(N)nc1` [Example B-15], for which, on PI3Kalpha, the “IC50 PI3Ka” value stood at 622 nM. The compound further returned an EC50 in assay [2] of 202 nM. The same compound yielded a concentration for half-maximal inhibition (IC50) at mTOR of 64 nM.

For `CCc1ncnc(N2CCC(C(F)(F)F)CC2)c1C#Cc1ccc(N)nc1` [Example B-41], at PI3Kalpha, the “IC50 PI3Ka” value worked out at 201 nM. This compound also returned a 50% effective concentration (EC50) in assay [2] of 19 nM. Moreover, the concentration for half-maximal inhibition (IC50) at mTOR came to 9 nM.

`CCc1ncnc(N2CCN(C(=O)c3ccco3)CC2)c1C#Cc1ccc(N)nc1` [Example G-7]: the “IC50 PI3Ka” value at PI3Kalpha turned out to be 37 nM. The same compound had an EC50 in assay [2] of 197 nM. Further, it took 60 nM to reach half-maximal inhibition against mTOR (IC50).

Turning to `CCc1ncnc(N2CCC(O)CC2)c1C#Cc1ccc(N)nc1` [Example B-48], at PI3Kalpha, the “IC50 PI3Ka” value was 99 nM. The compound further returned an EC50 in assay [2] of 141 nM. The compound also came in with a half-maximal inhibitory concentration (IC50) against mTOR of 14 nM.

On to `CCc1ncnc(N2CCC3(CC2)CC(=O)NC(=O)C3)c1C#Cc1ccc(N)nc1` [Example B-82], for which the “IC50 PI3Ka” value at PI3Kalpha amounted to 38 nM. The compound also showed an EC50 in assay [2] of 77 nM. Further, the IC50 on mTOR was found to be 5 nM.

`CCc1ncnc(N2CCN(C(C)C)CC2)c1C#Cc1ccc(N)nc1` [Example H-6]: the “IC50 PI3Ka” value on PI3Kalpha stood at 55 nM. For the same compound, in the assay with BT474, a half-maximal response (EC50) required 72 nM. This compound registered a half-inhibitory concentration (IC50) at mTOR of 15 nM.

With `CCc1ncnc(N2CCN(C(=O)C3CC3)CC2)c1C#Cc1ccc(N)nc1` [Example G-4], the “IC50 PI3Ka” value on PI3Kalpha is 46 nM. The compound also returned an EC50 in assay [2] of 206 nM. This compound gave a half-inhibitory concentration (IC50) on mTOR of 113 nM.

With `Cc1ncnc(N2CCC(O)(C(F)(F)F)CC2)c1C#Cc1ccc(N)nc1` [Example B-32], the “IC50 PI3Ka” value at PI3Kalpha came to 24 nM. It took 15 nM to reach a half-maximal effect in assay [2] (EC50). On mTOR, this compound showed an IC50 of 3 nM.

As to `COC1CCN(c2ncnc(C)c2C#Cc2ccc(N)nc2)CC1` [Example B-38], on PI3Kalpha, the “IC50 PI3Ka” value was 37 nM. Besides, in assay [2], the EC50 was found to be 122 nM. The same compound gave a half-inhibitory concentration (IC50) against mTOR of 18 nM.

As for `CCc1ncnc(N2CCN(CC(C)O)CC2)c1C#Cc1ccc(N)nc1` (stereo not drawn) [Example H-20], the “IC50 PI3Ka” value at PI3Kalpha came to 152 nM. Moreover, the EC50 with BT474 is 138 nM. Besides, the IC50 against mTOR came out at 51 nM.
